The conditions of data set [1]: literature reports on alternative crosslinkers, cited from earlier work.
Another data set relates to cells. The note with it: cited from earlier work; for cytotoxicity: crosslinking agent.
Data set [2] can be described thus: SEM fiber morphology after exposure to aqueous environment (water, DMEM). The note with it: genipin 0.03-0.1 M in absolute ethanol or isopropanol, crosslinking for 5 days. The data set is classed as physicochemical. On the procedure: All samples were imaged using a Scanning Electron Microscope (Leo 1530) and diameters of 100 randomly selected fibers were measured, per sample, using image processing software (ImageJ). One-way ANOVA using the Tukey test was used to compare the difference between the diameters of crosslinked samples (Dcrosslink) and after exposure to growth media for 1 and 3 days (Dfinal). If a significant difference existed, the percent swelling was then calculated using the equation: […]
The experimental parameters investigated were: solvent (isopropanol, ethanol), water content (0%, 1%, 3% and 5%) and reaction time (1, 3 and 5 days). All electrospun collagen fiber samples were exposed to air and the reaction temperature was maintained at 37° C. in an incubator. The genipin concentration was fixed at 11.3 mg of genipin per mg of collagen, which was sufficient for the crosslinking reaction to reach completion (Yao, C. H., et al., Materials Chemistry and Physics 2004, 83, (2-3), 204-208). After crosslinking, the collagen samples were washed in ethanol or isopropanol (depending on the solvent used) for further characterization.

Entries after “also recorded” stand apart in the source; their conditions may differ. Like-named read-outs stand apart in the source and are kept apart here.

As to `CCN=C=NCCCN(C)C` [EDC, 1-ethyl-3-(3-dimethylaminopropyl) carbodiimide], the “swelling / morphology of crosslinked collagen fibers in water” value (from here on “swelling / morphology”) in data set [1] is on record as “significant degree of swelling”.
Consider `O=C1CCC(=O)N1O` [NHS, N-hydroxysuccinimide], for which the “swelling / morphology” value in data set [1] is on record as “significant degree of swelling”.
As for `COC(=O)C1=CO[C@@H](O)[C@@H]2C(CO)=CC[C@H]12` [genipin], the cell proliferation result with cells (compared to glutaraldehyde) is reported as “more stimulative to cell proliferation”. Besides, in the data set on cells, the cytotoxicity entry is given as “low cytotoxicity”. In addition, in data set [2], the “morphology and overall architecture of collagen nanofibers after exposure to water” value is recorded as “failed to maintain the morphology”.
As for `O=CCCCC=O` [glutaraldehyde, Glutaraldehyde], the cytotoxicity result in the data set with cells was “highly cytotoxic”. For the same compound, the entries for the “swelling / morphology” value in data set [1] and in data set [1] (listed as GA) were “not very effective in controlling its swelling properties” and “failed to maintain collagen fiber morphology; also recorded: swell significantly in water”, respectively.

The values above are taken from patent US20100183699A1, “COMPOSITIONS AND METHODS TO CROSS LINK POLYMER FIBERS” (priority 2009, published 2010).
